One may read the IC50 as the midpoint of a concentration-inhibition curve.

Data on three compounds can be found in patent publication US20190314285A1, “DOSAGE FORMS COMPRISING ABIRATERONE ACETATE” (Janssen Pharmaceutica NV, priority 2018, published 2019).

In one data set the target is T1, 17,20-lyase (CYP17A1) (Homo sapiens, UniProt P05093).
T1 sequence (P05093 1-508): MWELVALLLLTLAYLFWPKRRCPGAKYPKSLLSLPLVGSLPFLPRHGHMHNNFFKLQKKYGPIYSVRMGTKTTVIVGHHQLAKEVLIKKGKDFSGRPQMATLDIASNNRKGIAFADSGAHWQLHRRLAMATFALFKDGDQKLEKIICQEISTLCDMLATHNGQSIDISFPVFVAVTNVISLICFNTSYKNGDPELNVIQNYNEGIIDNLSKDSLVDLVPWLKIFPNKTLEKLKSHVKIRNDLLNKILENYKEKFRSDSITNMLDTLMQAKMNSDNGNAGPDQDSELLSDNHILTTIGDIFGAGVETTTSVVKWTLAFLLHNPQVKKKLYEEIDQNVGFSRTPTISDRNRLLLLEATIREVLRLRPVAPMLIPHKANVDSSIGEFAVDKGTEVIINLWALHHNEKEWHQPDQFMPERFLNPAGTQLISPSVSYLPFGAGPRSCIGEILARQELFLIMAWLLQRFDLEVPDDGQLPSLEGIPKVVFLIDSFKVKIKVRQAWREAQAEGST
Conditions: cited from earlier work.

A short description of data set [1]: Plasma concentrations of abiraterone acetate in previous studies. Type of data set: in vivo.
The test system of data set [2] is circulating androgens (testosterone, DHT, DHEA, androstenedione). As to conditions: added to castration, relative to castration alone; cited from earlier work.
The next data set has as its system mCRPC. Conditions: cited from earlier work.

As to `C[C@]12CC[C@H](O)CC1=CC[C@@H]1[C@@H]2CC[C@]2(C)C(c3cccnc3)=CC[C@@H]12` [Abiraterone], the IC50 at 17,20-lyase (CYP17A1) is 15 nM.
With `CC(=O)O[C@H]1CC[C@@]2(C)C(=CC[C@@H]3[C@@H]2CC[C@]2(C)C(c4cccnc4)=CC[C@@H]32)C1` [abiraterone acetate, Abiraterone acetate], the “plasma concentrations of abiraterone acetate” value in data set [1] is on record as “below the lower limit of quantitation”. In addition, in data set [2], the “reduction of DHEA levels” value was 97-98%, the “reduction of DHT levels” value is listed as 85% and the “reduction of androstenedione levels” value is reported as 77-78%.
Regarding `O=C(c1cc(Cc2n[nH]c(=O)c3ccccc23)ccc1F)N1CCN(C(=O)C2CC2)CC1` [olaparib], in the data set with mCRPC (2 of 33), the “biomarker-negative patient tumors with a response” value is given as 6%. Further, the “responders who were biomarker-positive for anomalies in DNA-repair genes” value with mCRPC (14 of the 16 patients with a response) is listed as 88%. In addition, in the data set on mCRPC (human, in vivo), the “patients with ATM aberrations who had a response” value is 4 of 5 and the “patients with BRCA-2 loss who had a response” value is reported as “all 7 patients”.
